How the values were obtained:
[1] = target: T1, receptor for the incretin hormone glucagon-like peptide-1 (GLP-1) (Mus musculus, UniProt O35659); experiment: Islet cAMP synthesis in response to exendin-4; type: cell-based
T1 construct: from tissue; host or cells: isolated mouse pancreatic islets (Kiss1Rfl/fl and Panc-ΔKiss1R)
T1 sequence (O35659 22-463): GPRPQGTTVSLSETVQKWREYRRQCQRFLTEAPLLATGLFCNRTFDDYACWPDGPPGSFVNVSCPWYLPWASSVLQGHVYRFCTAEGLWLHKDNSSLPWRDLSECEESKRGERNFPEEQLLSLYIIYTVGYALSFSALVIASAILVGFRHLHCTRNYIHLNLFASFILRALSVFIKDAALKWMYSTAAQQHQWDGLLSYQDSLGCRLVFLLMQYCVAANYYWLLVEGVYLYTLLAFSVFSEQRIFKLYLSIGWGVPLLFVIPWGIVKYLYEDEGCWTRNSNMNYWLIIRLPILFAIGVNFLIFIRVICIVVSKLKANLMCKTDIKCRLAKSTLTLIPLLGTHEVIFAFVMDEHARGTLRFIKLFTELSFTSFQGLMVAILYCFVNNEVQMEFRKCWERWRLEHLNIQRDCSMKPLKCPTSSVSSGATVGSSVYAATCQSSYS
Description: (§1) For studies with plasma incubation, a final concentration of plasma was 1% or 10% (vol/vol). […] Islets were taken in 0.18M HCL/70% ethanol to extract and measure total islet insulin content. cAMP concentrations were measured in islet extracts using ELISA (Enzo Life Sciences).

Gcgr = target: T2, Gcgr (Mus musculus, UniProt Q61606); experiment: Gcgr antagonist GAI or inactive analog GAC 60 min before ipGTT in HFD and Lepr db/db mice; type: in vivo
T2 construct: endogenous in cells; host or cells: live mice (WT, Gcgrfl/fl, HFD-fed C57Bl/6, Lepr db/db); hepatic receptor
T2 sequence (Q61606 27-485): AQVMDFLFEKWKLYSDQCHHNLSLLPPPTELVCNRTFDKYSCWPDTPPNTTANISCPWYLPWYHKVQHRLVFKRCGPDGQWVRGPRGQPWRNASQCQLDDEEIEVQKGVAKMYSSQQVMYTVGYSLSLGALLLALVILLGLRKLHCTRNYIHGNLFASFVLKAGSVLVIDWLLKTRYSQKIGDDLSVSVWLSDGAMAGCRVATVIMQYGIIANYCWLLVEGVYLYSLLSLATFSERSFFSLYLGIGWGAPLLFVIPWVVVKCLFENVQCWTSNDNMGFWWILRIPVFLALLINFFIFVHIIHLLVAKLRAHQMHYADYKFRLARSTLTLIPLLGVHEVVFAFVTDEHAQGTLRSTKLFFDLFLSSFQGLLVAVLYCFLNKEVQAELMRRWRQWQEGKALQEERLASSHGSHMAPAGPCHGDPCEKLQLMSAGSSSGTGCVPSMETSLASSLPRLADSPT
Description: Intraperitoneal glucose tolerance (ipGTT) and insulin tolerance (ipITT) tests were performed according to standard protocols (Song et al., 2013; Song et al., 2011). After 9 am-3 pm fasting, animals were administered 20% D-glucose (via ip injection), insulin 0.5 U/kg i.p. (Novolin), glucagon (100 μg/kg i.p. (Sigma)). […] The glucagon receptor antagonist GAI (N-(3-Cyano-6-(1,1-dimethylpropyl)-4,5,6,7-tetrahydro-1-benzothien-2-yl)-2-ethylbutanamide (Qureshi et al., 2004) and its non-active analogue were administered (50 mg/kg i.p. in DMSO) in HFD fed and Lepr^db/db mice 60 min before i. GTT. Intraperitoneal pyruvate converstion (1 g/kg i.p.) test (ipPCT) in ΔL-Prkar1a mice was performed in the fed state (9 am) to avoid any confounding effects of fasting-induced elevated endogenous glucagon levels. Tail-vein blood was collected at the indicated times in figures for glucose and insulin measurements. Serum insulin was measured using mouse magnetic bead panel (Millipore, Luminex). Plasma for glucagon measurements was drawn from mice in the fed state at 9 am, unless otherwise noted for fasting studies. Plasma glucagon (Alpco) and kisspeptin1 (USCN Life Sciences Inc. E92559Ra) were measured by ELISA according to manufacturer's instructions including dilution of samples.
Liver Kiss1 Upregulation is Linked to Hyperglucagonemia in DM.

islets = experiment: Islets incubated 48 hours with K54: cAMP dependent, ER stress, oxidative stress and NLRP3 inflammasome markers (Table 5); type: cell-based, mouse; conditions: K54 10 nM
Description: Kisspeptin1 Causes ERS and UPR in Islets Independently of Hyperglycemia. […] Because reduction in cAMP signaling in β-cells reduces IRS2 and PDX1 and provokes ERS/UPR and apoptosis 11,12, we examined whether kisspeptin action on β-cells may provoke ERS/UPR. Islets were incubated in 10 nM […]. To control for stimulus for increased insulin biosynthesis and potential UPR response, we incubated islets at 5 and 10 mM glucose. […] Incubation at 10 mM glucose stimulated oxidative stress ERS and NLRP-I markers, but less pronounced than […] at 5 mM glucose. Treatment with […] at high (10 mM) glucose further augmented ERS/UPR, oxidative stress and NLRP3-I markers. Thus, kisspeptin treatment even at normoglycemia stimulates in islets the ERS/UPR response more potently than hyperglycemia (glucose 10 mM) and […] aggravates ERS/UPR induced by hyperglycemia only (Table 5).

Kiss1R [2] = target: T3, Kiss1R (Mus musculus, UniProt Q91V45); experiment: Glucose stimulated insulin secretion (GSIS) from cultured mouse islets, static incubation; type: cell-based; set-up: GSIS at very high kisspeptin concentration: dose or concentration left out as unconfirmed
T3 construct: Mouse brain, mouse islets, insulinoma cells, and human islets express Kiss1R; from tissue; host or cells: isolated mouse pancreatic islets (WT / Kiss1Rfl/fl, C57Bl/6 background)
T3 sequence (Q91V45 whole entry): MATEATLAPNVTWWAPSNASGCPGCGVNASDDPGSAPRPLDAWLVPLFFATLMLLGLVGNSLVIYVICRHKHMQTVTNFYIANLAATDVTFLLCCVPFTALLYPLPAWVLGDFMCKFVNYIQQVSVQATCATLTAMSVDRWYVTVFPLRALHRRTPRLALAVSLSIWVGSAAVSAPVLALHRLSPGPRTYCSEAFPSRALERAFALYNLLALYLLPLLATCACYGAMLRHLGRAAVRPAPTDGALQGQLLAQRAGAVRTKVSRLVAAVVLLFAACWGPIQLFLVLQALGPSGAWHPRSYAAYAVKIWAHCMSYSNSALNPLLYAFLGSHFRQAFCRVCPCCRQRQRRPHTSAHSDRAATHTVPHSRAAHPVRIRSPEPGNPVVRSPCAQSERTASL
Description: Isolated Islet Studies. Islet isolation was performed by collagenase digestion, gradient centrifugation, and three rounds of microscope-assisted manual picking of islets. Static incubation studies were conducted as previously described with 20 handpicked, equal-sized islets were studied in each group (Song et al., 2011). After overnight culture (37_C, 5% CO2, and 95% O2 in humid chamber) of isolated islets in RPMI 1640 (Mediatech) containing 5 mM glucose, 1% each Na-Pyruvate, HEPES, Penicillin/Streptomycin, and 0.2% BSA, islets were switched to either 10 or 20 mM glucose containing RPMI 1640. Where indicated, Kisspeptin-10 (0-100 nM, and […]), E4 (10 nM), or vehicle (PBS) was added. After 30 min incubation glucose concentrations, supernatant was taken for insulin measurements and pelleted islets were taken in acid ethanol (0.18M HCl in 70% ethanol) for insulin measurements in islets (ELISA, Alpco). Islet protein concentration was measured using the BCA method (Thermo Fisher).
Islet studies. Islet isolation was performed by collagenase digestion, gradient centrifugation and three rounds of microscope-assisted manual picking of islets (Song et al., 2011). Static incubation studies were conducted as previously described with 20 hand-picked equalized islets were studied in each group. Islets were cultured in RPMI 1640 medium (Invitrogen) containing 10 or 20 mM D-glucose (as indicated) and supplemented with 0.2% bovine serum albumin, 1% each Na-Pyruvate, HEPES, Penicillin/Streptomycin. After 30 min incubation glucose concentrations, supernatant was taken for insulin measurements and pelleted islets were taken in acid ethanol (0.18M HCl in 70% ethanol) for insulin measurements in islets (Alpco). Islet protein concentration was measured using the BCA method (Thermo Fisher).
Insulin secretion during static incubation. After overnight culture (37 C, 5% CO2, 95% O2 in humid chamber) of isolated islets in RPMI 1640 (Mediatech) containing 5 mM glucose, 1% each Na-Pyruvate, HEPES, Penicillin/Streptomycin and 0.2% bovine serum albumin (BSA), islets were switched to either 10 or 20 mM glucose containing RPMI 1640. […] After 30 min incubation glucose concentrations, supernatant was taken for insulin measurements and pelleted islets were taken in acid ethanol (0.18M HCl in 70% ethanol) for insulin measurements in islets (ELISA, Alpco). Islet protein concentration was measured using the BCA method (Thermo Fisher).

Kiss1R [3] = target: T3, Kiss1R; experiment: Islet cAMP concentrations (ELISA) in response to kisspeptin; type: cell-based
Description: as §1

Kiss1R [4] = target: T3, Kiss1R; experiment: Islet perifusion assay, first and second phase GSIS; type: cell-based; conditions: isolated mouse islets
Description: Perifusion studies were performed as previously published (Song et al., 2013; Song et al., 2011) with slight modifications. The perifusate was Krebs ringer buffer (KRB) (37 C, pH 7.4) containing 0.2% BSA fraction V, 24 mM sodium bicarbonate and was gassed with 95% air and 5% CO2. Perifusion (1 ml/min) occurred for the first 30 minutes with a KRB containing 3 mM glucose for equilibration, after which time the perifusate was collected in 1 ml fractions. After additional 10 minutes, glucose in the perifusate was increased to 10 mM. […] Insulin was measured in selected individual eluent fractions at 30, 35, 40, 42, 45, 50, 55, 60 min (Alpco ELISA). The first 10 minutes after increasing glucose was defined as first phase, the period thereafter was defined as second phase of insulin secretion. At the end of the perifusion protocol, 30 mM KCL was administered into the perifusate to depolarize β-cells. Insulin levels were normalized to total islet protein, which was spectrophotometrically determined (Eppendorf) after completion of the perifusion protocol.

Kiss1R [5] = target: T3, Kiss1R; experiment: ipGTT with ip coinjection of kisspeptin and glucose; type: in vivo
Description: Intraperitoneal glucose tolerance (ipGTT) and insulin tolerance (ipITT) tests were performed according to standard protocols (Song et al., 2013; Song et al., 2011). After 9 am-3 pm fasting, animals were administered 20% D-glucose (via ip injection), insulin 0.5 U/kg i.p. (Novolin), glucagon (100 μg/kg i.p. (Sigma)). […] Plasma for glucagon measurements was drawn from mice in the fed state at 9 am, unless otherwise noted for fasting studies. Plasma glucagon (Alpco) and kisspeptin1 (USCN Life Sciences Inc. E92559Ra) were measured by ELISA according to manufacturer's instructions including dilution of samples.

[6] = Kiss1Rfl/fl and Panc-DKiss1R islets

## exendin-4 [E4]
[1]; [6]
  islet cAMP synthesis: stimulates cAMP synthesis
[1]; isolated WT mouse islets treated with K10
  reversal of K10-reduced cAMP production: partially reversed

## CCC(CC)C(=O)Nc1sc2c(c1C#N)CCC(C(C)(C)CC)C2 (stereo not drawn) [GAI, N-(3-Cyano-6-(1,1-dimethylpropyl)-4,5,6,7-tetrahydro-1-benzothien-2-yl)-2-ethylbutanamide]
Gcgr; HFD and Lepr db/db mice
  liver Kiss1 expression: reduction
  liver gluconeogenic gene expression (Pparg1a, Src1, G6P, Pck1 mRNA): reduction
  liver pCREB: corresponding reductions
Gcgr; HFD and Lepr db/db mice, in vivo ChIP
  CREB occupancy of CRE 1 and 2 in the Kiss1 promoter: reduces CREB occupancy
Gcgr; HFD and Lepr db/db mice, single dose 50 mg/kg i.p. 60 min before ipGTT, versus GAC
  basal glycemia and GT: improved basal glycemia as well as GT
Gcgr; HFD fed and Lepr db/db mice, fed state, 60 min after treatment
  circulating plasma glucagon levels: remained unchanged

## Gly-Thr-Ser-Leu-Ser-Pro-Pro-Pro-Glu-Ser-Ser-Gly-Ser-Arg-Gln-Gln-Pro-Gly-Leu-Ser-Ala-Pro-His-Ser-Arg-Gln-Ile-Pro-Ala-Pro-Gln- Gly-Ala-Val-Leu-Val-Gln-Arg-Glu- Lys-Asp-Leu-Pro-Asn-Tyr-Asn-Trp-Asn-Ser-Phe-Gly-Leu-Arg-Phe-NH2 [K54]
islets; Hyperglycemia Glucose 10 mM
  ATF5 (NLRP3 Inflammasome): 1.9 ± 0.4
  CHOP (ER stress): 2.2 ± 0.5
  Catalase (Oxidative stress): 8.8 ± 0.5
  IL-1β (NLRP3 Inflammasome): 1.9 ± 0.2
  IRS2 (cAMP dependent): 0.6 ± 0.2
  PDI (ER stress): 1.8 ± 0.3
  PDX1 (cAMP dependent): 0.5 ± 0.3
  SOD1 (Oxidative stress): 3.2 ± 0.3
  SOD2 (Oxidative stress): 2.4 ± 0.4
  Spliced XBP-1 (ER stress): 2.1 ± 0.4
  TXNIP (NLRP3 Inflammasome): 5.5 ± 0.3
  Total XBP-1 (ER stress): 1.5 ± 0.3
islets; Normoglycemia Glucose 5 mM
  ATF5 (NLRP3 Inflammasome): 1.4 ± 0.4
  CHOP (ER stress): 1.9 ± 0.4
  Catalase (Oxidative stress): 6.2 ± 0.6
  IL-1β (NLRP3 Inflammasome): 1.7 ± 0.3
  IRS2 (cAMP dependent): 0.5 ± 0.3
  PDI (ER stress): 1.4 ± 0.4
  PDX1 (cAMP dependent): 0.6 ± 0.2
  SOD1 (Oxidative stress): 2.1 ± 0.4
  SOD2 (Oxidative stress): 1.9 ± 0.3
  Spliced XBP-1 (ER stress): 1.8 ± 0.5
  TXNIP (NLRP3 Inflammasome): 4.8 ± 1.1
  Total XBP-1 (ER stress): 1.4 ± 0.3
Kiss1R [2]; [6]
  GSIS at very high kisspeptin concentration: GSIS stimulation from both Kiss1Rfl/fl and Panc-DKiss1R islets
Kiss1R [2]; Kiss1Rfl/fl mouse islets, serum-free media, 10 or 20 mM glucose
  lowest concentration suppressing GSIS: 0.1 nM
Kiss1R [2]; islets lacking Kiss1R, nanomolar concentrations
  GSIS from Panc-DKiss1R islets: impervious to K54-mediated GSIS suppression
Kiss1R [2]; mouse islets cultured at 10 mM glucose, static incubation
  E4-potentiated GSIS: dose-dependently suppressed
Kiss1R [2]; static incubation, nanomolar concentrations (0-100 nM), 10 or 20 mM glucose
  GSIS from Kiss1Rfl/fl (WT) mouse islets: suppressed GSIS in a dose-dependent manner
Kiss1R [3]; Kiss1Rfl/fl (WT) islets
  islet cAMP production in response to exendin-4 (E4): impaired islet cAMP production
Kiss1R [3]; WT mouse islets, 10 mM glucose, 10 nM
  islet cAMP concentrations: lower cAMP concentrations
Kiss1R [3]; islets lacking Kiss1R
  baseline and E4-induced cAMP concentrations in Panc-DKiss1R islets: not affected
Kiss1R [4]
  E4-potentiated GSIS, first and second phase: suppressed
Kiss1R [4]; 10 mM glucose
  first (0-10 min after glucose stimulation) and second phases of GSIS: suppressed
Kiss1R [5]; 10 nmol ip with glucose during ipGTT
  in vivo GSIS in control (Kiss1rfl/fl, WT) mice: suppressed GSIS
Kiss1R [5]; 10 nmol ip, mice lacking pancreas Kiss1R
  in vivo GSIS in Panc-DKiss1R mice: did not affect GSIS
Kiss1R [5]; acute administration, 10 nmol ip
  glucose tolerance in WT mice: impaired glucose tolerance

From US10220069B2, “Compositions and methods for treating diabetes” (THE JOHNS HOPKINS UNIVERSITY, priority 2014, dated 2019)
